Reference: US7435721B2, “Transport peptides such as C-terminal Erns peptide and analogues thereof” (Pepscan Systems B.V., priority 2000, dated 2008)
Converted amounts (≈) assume the structure as drawn. Where two headings read alike, the source gives them in different places. *: point of attachment. Biotin = O=C1N[C@H]2[C@H](CS[C@H]2CCCCC(=O)*)N1

Tests used:
[1] = tested on: live cells in suspension or subconfluent monolayers; assay type: cell-based
skin of a live pig = tested on: skin of a live pig
Procedure: (§1) Transdermal transport. The potential of the an E^rns peptide to penetrate the skin was tested by applying 150 μl 0.3-4 mM of biotinylated peptide in a chamber containing an isolated piece of “fresh” human breast skin or in a chamber which was glued on the skin of a live pig, or applying 50 μl of peptide solution on the skin with a cotton wool tip, or applying 50 μl of a peptide solution mixed with 50 μl of contact gel on the skin for 30 minutes to 120 minutes. After the incubation time, the pig was killed, the skin was cleaned and biopsied, and a biopsy was frozen in liquid nitrogen. Cryosections of the skin samples were fixed on microscopic slides with acetone and incubated with streptavidin-FITC ( 1/100) for 30 minutes.

[2] = tested on: fixed cells (Ebtr, SK6, sf-21, Caco-2 and HT-29); assay type: cell-based
guinea pig erythrocytes = assay: Hemolytic assay, guinea pig erythrocytes; assay type: cell-based; details: 1% v/v, one hour at 37° C.
Procedure: Hemolytic assay. Hemolytic activity of various peptide concentrations was determined by incubation with human, guinea pig or sheep erythrocyte suspensions (final erythrocyte concentration, 1% v/v) for one hour at 37° C. After cooling and centrifugation, the optical density of the supernatants were measured at 540 nm. Peptide concentrations causing 50% hemolysis (EC50) were derived from the dose-response curves.

[3] = tested on: Escherichia coli ATCC 25922; assay: Antimicrobial assay (MIC), E. coli; assay type: cell-based; details: overnight at 37° C.
Procedure: Antimicrobial assay. Two bacterial strains (Escherichia coli ATCC 25922 and Enterococcus faecalis ATCC 29212) were inoculated on heart infusion agar with 5% sheep blood and incubated aerobically overnight at 37° C. From the pure cultures, suspensions were made in saline to a density of 0.5 McFarland. These suspensions were diluted ten-fold in Mueller Hinton II broth, resulting in a final inoculum of approximately 10^7 cfu/ml.
Standard 96-well microtiter trays were filled with 100 ill of two-fold dilutions of peptide in physiologic salt solution in each well, resulting in the following concentration range: 4000, 2000, 1000, 500, 250, 125, 62.25, 31.63, 15.82, 7.96 and 0 μg/ml. The trays in column 12 were filled with 200 μl MH II broth (negative control).
Columns 1-11 of the microtiter trays were filled with 100 μl of the final inoculum of the bacterial suspensions, thus diluting the concentrations of the peptide two fold, resulting in the following peptide concentration range in the wells: 2000, 1000, 500, 250, 125, 62.25, 31.63, 15.82, 7.96, 3.98 and 0 μg/ml. In rows B, C and D, 100 μl of the final inoculum of E. coli and, in rows E, F and G, 100 μl of the final inoculum of E. faecalis was pipetted. The final bacterial concentration was approximately 5×10^5 cfu/well. All trays were sealed and incubated overnight at 37° C. After incubation, the microtiter trays were inspected visually for bacterial growth and the absorbance of the cultures at 630 nm (A630) was determined with an ELISA-reader. […] The experiment was performed independently in triplicate. The test was repeated again in triplicate after two days with the final peptide concentration range in the wells: 5000, 2500, 1250, 625, 312.5, 156.25, 78.12, 39.06, 19.58, 9.79, 4.88, 2.44 and 1.22 μg/ml.

human breast skin = human breast skin in vitro, two hours
Procedure: as §1

[4] = Table 9, lower concentration = higher translocation activity

Biotin-RSRGRLRRGAIRLQRG-Lysine (MTT)- broomacetic acid [A941]
Concentration (translocation activity), optimization of E^rns peptide [1]: 0.03 µM | Translocation activity (in words) [1]: higher translocation activity compared with the original MDK-20 | Accumulation in the skin compared with MDK-20 (skin of a live pig; transdermal transport, skin model not given): Much more accumulation in the skin

$ENARQGAARVTSWLGRQLRIAGKRLEGRSKTWFGAYA# [191-227]
Binding to fixed cells [2]: able to bind to all tested cell types | Peptide concentration that inhibits cell growth (EBTr cells): 50 µM | Time to optimal fluorescence [1]: 30 min | Translocation activity (in words) [1]: penetrated inside all cell types | Peptide concentration that inhibits cell growth (HeLa cells): 50 µM

CC[C@H](C)[C@H](NC(=O)[C@H](CCCNC(=N)N)NC(=O)[C@H](CC(C)C)NC(=O)[C@H](CCC(N)=O)NC(=O)[C@H](CCCNC(=N)N)NC(=O)CNC(=O)[C@H](CC(C)C)NC(=O)[C@H](Cc1c[nH]c2ccccc12)NC(=O)[C@H](CO)NC(=O)[C@@H](NC(=O)[C@@H](NC(=O)[C@H](CCCNC(=N)N)NC(=O)[C@H](C)NC(=O)[C@H](C)NC(=O)CNC(=O)[C@H](CCC(N)=O)NC(=O)[C@H](CCCNC(=N)N)NC(=O)CCCC[C@@H]1SC[C@@H]2NC(=O)N[C@@H]21)C(C)C)[C@@H](C)O)C(=O)N[C@@H](C)C(=O)NCC(=O)N[C@@H](CCCCN)C(=O)N[C@@H](CCCNC(=N)N)C(=O)N[C@@H](CC(C)C)C(=O)N[C@@H](CCC(=O)O)C(=O)NCC(=O)N[C@@H](CCCNC(=N)N)C(=O)N[C@@H](CO)C(=O)N[C@@H](CCCCN)C(N)=O [194-220]
Hemolysis (peptide concentration causing 50% hemolysis) (guinea pig erythrocytes): 0.26 mg/mL | Peptide concentration that inhibits cell growth (EBTr cells; EBTr, 75 minutes incubation, growth checked after 3 to 6 days): 60 µM | Concentration at which biotinylated peptide was still (faintly) detectable [1]: 125 nM | Concentration (translocation activity), optimization of E^rns peptide [1, 4]: 1.0 µM | Peptide concentration that inhibits cell growth (HeLa cells; HeLa, 75 minutes incubation, growth checked after 3 to 6 days): 40 µM | MIC (minimal inhibitory concentration needed to inhibit bacterial growth) [3]: 50 µg/mL (≈ 15.3 µM)

CC[C@H](C)[C@H](NC(=O)[C@H](CCCNC(=N)N)NC(=O)[C@H](CC(C)C)NC(=O)[C@H](CCC(N)=O)NC(=O)[C@H](CCCNC(=N)N)NC(=O)CNC(=O)CCCC[C@@H]1SC[C@@H]2NC(=O)N[C@@H]21)C(=O)N[C@@H](C)C(=O)NCC(=O)N[C@@H](CCCCN)C(=O)N[C@@H](CCCNC(=N)N)C(=O)N[C@@H](CC(C)C)C(=O)N[C@@H](CCC(=O)O)C(=O)NCC(=O)N[C@@H](CCCNC(=N)N)C(=O)N[C@@H](CO)C(=O)N[C@@H](CCCCN)C(N)=O [205-220]
Hemolysis (peptide concentration causing 50% hemolysis) (guinea pig erythrocytes): >0.33 mg/mL | Concentration (translocation activity), optimization of E^rns peptide [1, 4]: 1.0 µM | MIC (minimal inhibitory concentration needed to inhibit bacterial growth) [3]: >500 µg/mL

CC[C@H](C)[C@H](NC(=O)[C@H](CCCNC(=N)N)NC(=O)[C@H](CC(C)C)NC(=O)[C@H](CCC(N)=O)NC(=O)[C@H](CCCNC(=N)N)NC(=O)CNC(=O)[C@H](CC(C)C)NC(=O)[C@H](Cc1c[nH]c2ccccc12)NC(=O)[C@H](CO)NC(=O)[C@@H](NC(=O)[C@@H](NC(=O)[C@H](CCCNC(=N)N)NC(=O)[C@H](C)NC(=O)[C@H](C)NC(=O)CNC(=O)[C@H](CCC(N)=O)NC(=O)[C@H](CCCNC(=N)N)NC(=O)[C@H](C)NC(=O)[C@H](CC(N)=O)NC(=O)[C@H](CCC(=O)O)NC(=O)[C@@H](NC(=O)[C@@H](NC(=O)[C@H](CC(N)=O)NC(=O)[C@@H](NC(=O)[C@H](CCSC)NC(=O)CNC(=O)[C@H](CC(=O)O)NC(=O)[C@H](CC(C)C)NC(=O)[C@H](CC(C)C)NC(=O)[C@H](Cc1ccc(O)cc1)NC(=O)[C@H](CC(C)C)NC(=O)[C@H](C)NC(=O)[C@@H](NC(=O)[C@H](CC(=O)O)NC(=O)CCCC[C@@H]1SC[C@@H]2NC(=O)N[C@@H]21)[C@@H](C)O)[C@@H](C)O)[C@@H](C)O)[C@@H](C)CC)C(C)C)[C@@H](C)O)C(=O)N[C@@H](C)C(=O)NCC(=O)N[C@@H](CCCCN)C(=O)N[C@@H](CCCNC(=N)N)C(=O)N[C@@H](CC(C)C)C(=O)N[C@@H](CCC(=O)O)C(N)=O [177-216]
Hemolysis (peptide concentration causing 50% hemolysis) (guinea pig erythrocytes): 0.23 mg/mL | MIC (minimal inhibitory concentration needed to inhibit bacterial growth) [3]: 224 µg/mL (≈ 47.8 µM)

CC[C@H](C)[C@H](NC(=O)[C@H](CCCNC(=N)N)NC(=O)[C@H](CC(C)C)NC(=O)[C@H](CCC(N)=O)NC(=O)[C@H](CCCNC(=N)N)NC(=O)CNC(=O)[C@H](CC(C)C)NC(=O)[C@H](Cc1c[nH]c2ccccc12)NC(=O)[C@H](CO)NC(=O)[C@@H](NC(=O)[C@@H](NC(=O)[C@H](CCCNC(=N)N)NC(=O)[C@H](C)NC(=O)[C@H](C)NC(=O)CNC(=O)[C@H](CCC(N)=O)NC(=O)[C@H](CCCNC(=N)N)NC(=O)[C@H](C)NC(=O)[C@H](CC(N)=O)NC(=O)[C@H](CCC(=O)O)NC(=O)CCCC[C@@H]1SC[C@@H]2NC(=O)N[C@@H]21)C(C)C)[C@@H](C)O)C(=O)N[C@@H](C)C(=O)NCC(=O)N[C@@H](CCCCN)C(=O)N[C@@H](CCCNC(=N)N)C(=O)N[C@@H](CC(C)C)C(=O)N[C@@H](CCC(=O)O)C(=O)NCC(=O)N[C@@H](CCCNC(=N)N)C(=O)N[C@@H](CO)C(=O)N[C@@H](CCCCN)C(=O)N[C@H](C(=O)N[C@@H](Cc1c[nH]c2ccccc12)C(=O)N[C@@H](Cc1ccccc1)C(N)=O)[C@@H](C)O [191-223]
Hemolysis (peptide concentration causing 50% hemolysis) (guinea pig erythrocytes): 0.15 mg/mL | MIC (minimal inhibitory concentration needed to inhibit bacterial growth) [3]: 41 µg/mL (≈ 10.2 µM)

Biotin-GRQLRIAGRRLRGRSR-NH2 [MDK-20]
Concentration (translocation activity), optimization of E^rns peptide [1]: 0.1 µM | Skin penetration of biotinylated peptide (human breast skin): could be visualized with streptavidin-FITC in the epidermis and the dermis | Skin penetration of biotinylated peptide (skin of a live pig; skin of a pig in vivo): same results | Time after application at which penetration into the epidermis was observed (skin of a live pig; skin of a pig in vivo): 30 min
